Measurements published in patent US12514840B2, “Treatment of idiopathic hypohidrosis” (NATIONAL SKIN CENTRE (SINGAPORE) PTE LTD, priority 2019, dated 2026).

Assays:
Format in all cases: in vivo, human
[1] = system: sweat apparatus (glands or ducts) of patients with idiopathic hypohidrosis; assay: Injection of Carbachol to locate the pathology in idiopathic hypohidrosis (induction of sweating)
[2] = system: patients with idiopathic hypohidrosis; assay: Treatment of fourteen patients with idiopathic hypohidrosis with oral retinoids (exercise, starch-iodine sweat test, HD-OCT); conditions: for patients who responded and were successfully treated: generalised hypohidrosis, three with acitretin (one did not respond)
Description: Fourteen patients presenting with idiopathic hypohidrosis underwent monitored exercising on a stationary bicycle for 20 minutes. Their temperature and heart rate were repeatedly measured during the exercise. Subsequently, using a spray gun, starch-iodine powder was sprayed onto the whole body of the patient and the powder coats onto the skin (FIG. 1). The coat of powder on body areas with sweating turned purple, while the powder in areas without sweat remained brown (FIG. 2). This allows the body surface area of anhidrosis to be assessed. Thereafter, the patient rinsed off the powder, which washed off easily with water.
The patients' skin was subsequently imaged using high-definition optical coherence tomography (HD-OCT) non-invasive skin imaging (Skintell, Agfa, Belgium). HD-OCT uses an infrared (1000-1700 nm), interferometric and time-domain imaging technique. Instead of a single pin diode light detector, it uses a two-dimensional imaging array to allow for simultaneous cross-sectional and en face images acquisition. A high lateral resolution of 3 μm is ensured using a technique called continuous focus tracking. The capture of a 3D image (containing 57 million voxels) takes 2-3 seconds and the information acquired can subsequently be digitally analysed.
The fourteen patients suffering from idiopathic hypohidrosis were offered treatment according to the invention.
All of the treated patients were started on an oral dose of isotretinoin or acitretin of between 5 and 20 mg once daily for at least six weeks. If necessary, this dose was adjusted, whether increased because the initial dose was ineffective, or decreased to reduce the expected side effects associated with oral retinoids. All patients responded to a dose of between 10 and 30 mg once daily. This dose was further adjusted as required until symptoms of idiopathic hypohidrosis had resolved. Administration of retinoids was continued to prevent reoccurrence of symptoms.

[3] = system: patients with idiopathic hypohidrosis; assay: Long term retrospective assessment of 28 patients with idiopathic hypohidrosis, 20 treated with retinoids
Description: A retrospective analysis on patients with isolated hypohidrosis who attended a neuro-dermatology clinic over a 5.75-year period was conducted. All patients routinely underwent standardized exercising and whole-body starch-iodine test, followed by non-invasive HD-OCT skin imaging, and their treatment history was analysed.
28 patients with idiopathic hypohidrosis were included in the study, 14 of whom were affected in a generalised manner (with 70% and more of body surface affected) and 14 in a partial manner. 14 of the 28 patients were those which were the subject of Example 1, and 14 patients were new.

[4] = five treated with isotretinoin, oral once daily
[5] = one patient successfully treated with isotretinoin

Compound | induction of sweating ([1]; injection at regions where patients could sweat) | induction of sweating ([1]; injection in areas where patients cannot sweat) | patients who responded and were successfully treated [2, 4] | patients recovered ([3]; of three patients treated, one did not respond) [patients] | HD-OCT imaging of lesions after treatment [2, 5] | sweat test after treatment [2, 5] | patients who responded to treatment and were successfully treated ([2]; partial hypohidrosis, five treated with isotretinoin, oral once daily) | patients recovered well enough to return to their pre-morbid sporting activities ([3]; seventeen patients (7 generalised and 10 partial), oral) [%]
C[N+](C)(C)CCOC(N)=O [Carbachol] | induced sweating | could not do so |  |  |  |  |  | 
COc1cc(C)c(/C=C/C(C)=C/C=C/C(C)=C/C(=O)O)c(C)c1C [acitretin] |  |  | Two of the three | 2 |  |  |  | 
CC1=C(/C=C/C(C)=C/C=C/C(C)=C\C(=O)O)C(C)(C)CCC1 [isotretinoin, 13-cis-retinoic acid] |  |  | All five |  | no longer visible | normalised extent of sweating | All five | 100
